Source: PMC8213057, “Targeting ALK2: An Open Science Approach to Developing Therapeutics for the Treatment of Diffuse Intrinsic Pontine Glioma” (Journal of Medicinal Chemistry, 2020)

What was measured:
EPHA8 = molecular target: T1, EPHA8 (Homo sapiens, UniProt P29322); conditions: 1 μM; Run 1, Run 2
T1 sequence (P29322 28-1005): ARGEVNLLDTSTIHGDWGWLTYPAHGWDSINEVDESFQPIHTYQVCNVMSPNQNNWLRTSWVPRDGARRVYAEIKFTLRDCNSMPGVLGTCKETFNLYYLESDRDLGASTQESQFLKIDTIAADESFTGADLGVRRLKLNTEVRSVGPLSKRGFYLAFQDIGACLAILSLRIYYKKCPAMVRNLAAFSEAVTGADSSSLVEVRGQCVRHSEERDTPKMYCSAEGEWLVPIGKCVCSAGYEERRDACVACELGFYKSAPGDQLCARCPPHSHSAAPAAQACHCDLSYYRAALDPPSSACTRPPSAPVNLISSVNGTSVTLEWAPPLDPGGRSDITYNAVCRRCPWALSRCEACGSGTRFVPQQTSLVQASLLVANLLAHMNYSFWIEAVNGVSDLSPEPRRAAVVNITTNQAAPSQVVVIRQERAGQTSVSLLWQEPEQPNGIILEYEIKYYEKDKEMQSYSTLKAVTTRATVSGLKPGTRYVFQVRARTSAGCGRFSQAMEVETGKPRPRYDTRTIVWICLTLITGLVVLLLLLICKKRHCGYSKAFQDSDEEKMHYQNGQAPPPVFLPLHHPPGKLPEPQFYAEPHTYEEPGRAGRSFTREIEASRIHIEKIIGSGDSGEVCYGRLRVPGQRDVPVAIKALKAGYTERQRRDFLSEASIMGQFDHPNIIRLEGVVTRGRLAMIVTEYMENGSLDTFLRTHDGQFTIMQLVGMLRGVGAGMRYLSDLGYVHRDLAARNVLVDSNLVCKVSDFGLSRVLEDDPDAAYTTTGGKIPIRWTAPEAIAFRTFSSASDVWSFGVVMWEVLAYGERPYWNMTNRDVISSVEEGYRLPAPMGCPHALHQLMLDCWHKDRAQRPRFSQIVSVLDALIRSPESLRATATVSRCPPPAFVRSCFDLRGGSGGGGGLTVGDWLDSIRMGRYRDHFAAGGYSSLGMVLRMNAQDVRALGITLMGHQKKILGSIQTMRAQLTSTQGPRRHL

TSSK3/STK22C = molecular target: T2, TSSK3/STK22C (Homo sapiens, UniProt Q96PN8); assay: biochemical; conditions: read-out: % enzyme activity, 1 μM; Run 1, Run 2
T2 sequence (Q96PN8 1-268): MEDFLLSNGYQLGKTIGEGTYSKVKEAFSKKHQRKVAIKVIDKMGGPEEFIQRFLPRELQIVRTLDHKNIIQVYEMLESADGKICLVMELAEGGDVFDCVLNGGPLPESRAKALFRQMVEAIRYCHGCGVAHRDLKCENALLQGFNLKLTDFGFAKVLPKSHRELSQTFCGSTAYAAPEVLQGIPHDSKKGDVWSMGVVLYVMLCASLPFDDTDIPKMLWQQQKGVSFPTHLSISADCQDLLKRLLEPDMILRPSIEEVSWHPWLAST

LCK2/ICK = molecular target: T3, LCK2/ICK (Homo sapiens, UniProt Q9UPZ9); assay: biochemical; conditions: read-out: % enzyme activity, 1 μM; Run 1, Run 2
T3 sequence (Q9UPZ9 1-632): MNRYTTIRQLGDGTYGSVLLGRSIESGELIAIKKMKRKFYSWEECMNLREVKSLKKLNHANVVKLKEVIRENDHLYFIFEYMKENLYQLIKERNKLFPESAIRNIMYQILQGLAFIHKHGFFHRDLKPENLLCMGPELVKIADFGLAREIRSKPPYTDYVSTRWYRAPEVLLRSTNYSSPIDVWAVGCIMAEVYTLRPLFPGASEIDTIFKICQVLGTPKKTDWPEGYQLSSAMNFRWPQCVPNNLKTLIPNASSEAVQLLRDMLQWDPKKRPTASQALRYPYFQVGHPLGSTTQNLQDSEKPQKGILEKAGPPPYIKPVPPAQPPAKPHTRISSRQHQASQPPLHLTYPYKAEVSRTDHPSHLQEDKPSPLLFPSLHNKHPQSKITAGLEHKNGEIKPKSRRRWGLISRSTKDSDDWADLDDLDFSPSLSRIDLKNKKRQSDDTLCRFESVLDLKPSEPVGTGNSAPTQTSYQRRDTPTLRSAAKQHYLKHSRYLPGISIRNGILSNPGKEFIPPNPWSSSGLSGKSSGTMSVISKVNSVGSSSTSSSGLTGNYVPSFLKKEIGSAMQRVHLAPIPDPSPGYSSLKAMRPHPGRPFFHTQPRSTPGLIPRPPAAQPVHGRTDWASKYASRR

TIE2/TEK = TIE2/TEK (Homo sapiens, UniProt Q02763); assay: biochemical; conditions: read-out: % enzyme activity, 1 μM; Run 1, Run 2
MLCK/MYLK = MLCK/MYLK (Homo sapiens, UniProt Q15746); assay: biochemical; conditions: read-out: % enzyme activity, 1 μM; Run 1, Run 2
RSK1 = RSK1 (Homo sapiens, UniProt Q15418); conditions: 1 μM; Run 1, Run 2
CLK3 = CLK3 (Homo sapiens, UniProt P49761); assay: biochemical; conditions: read-out: % enzyme activity, 1 μM; Run 1, Run 2
Sequence of CLK3 (P49761 whole entry): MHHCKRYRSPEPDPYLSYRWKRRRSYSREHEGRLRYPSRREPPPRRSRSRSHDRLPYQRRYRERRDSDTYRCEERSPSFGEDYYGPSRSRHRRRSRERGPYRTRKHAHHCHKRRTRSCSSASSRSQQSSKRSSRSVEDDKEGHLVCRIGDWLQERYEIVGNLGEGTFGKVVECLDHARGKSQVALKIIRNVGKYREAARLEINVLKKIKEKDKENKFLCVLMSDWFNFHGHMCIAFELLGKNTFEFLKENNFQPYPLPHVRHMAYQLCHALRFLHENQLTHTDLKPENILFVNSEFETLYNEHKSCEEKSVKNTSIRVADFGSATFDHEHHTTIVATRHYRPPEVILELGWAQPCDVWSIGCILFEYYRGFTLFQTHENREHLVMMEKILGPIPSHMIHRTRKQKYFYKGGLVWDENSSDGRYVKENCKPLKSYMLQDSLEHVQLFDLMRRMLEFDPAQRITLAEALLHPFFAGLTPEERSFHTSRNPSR

Sequence of MLCK/MYLK (Q15746 whole entry): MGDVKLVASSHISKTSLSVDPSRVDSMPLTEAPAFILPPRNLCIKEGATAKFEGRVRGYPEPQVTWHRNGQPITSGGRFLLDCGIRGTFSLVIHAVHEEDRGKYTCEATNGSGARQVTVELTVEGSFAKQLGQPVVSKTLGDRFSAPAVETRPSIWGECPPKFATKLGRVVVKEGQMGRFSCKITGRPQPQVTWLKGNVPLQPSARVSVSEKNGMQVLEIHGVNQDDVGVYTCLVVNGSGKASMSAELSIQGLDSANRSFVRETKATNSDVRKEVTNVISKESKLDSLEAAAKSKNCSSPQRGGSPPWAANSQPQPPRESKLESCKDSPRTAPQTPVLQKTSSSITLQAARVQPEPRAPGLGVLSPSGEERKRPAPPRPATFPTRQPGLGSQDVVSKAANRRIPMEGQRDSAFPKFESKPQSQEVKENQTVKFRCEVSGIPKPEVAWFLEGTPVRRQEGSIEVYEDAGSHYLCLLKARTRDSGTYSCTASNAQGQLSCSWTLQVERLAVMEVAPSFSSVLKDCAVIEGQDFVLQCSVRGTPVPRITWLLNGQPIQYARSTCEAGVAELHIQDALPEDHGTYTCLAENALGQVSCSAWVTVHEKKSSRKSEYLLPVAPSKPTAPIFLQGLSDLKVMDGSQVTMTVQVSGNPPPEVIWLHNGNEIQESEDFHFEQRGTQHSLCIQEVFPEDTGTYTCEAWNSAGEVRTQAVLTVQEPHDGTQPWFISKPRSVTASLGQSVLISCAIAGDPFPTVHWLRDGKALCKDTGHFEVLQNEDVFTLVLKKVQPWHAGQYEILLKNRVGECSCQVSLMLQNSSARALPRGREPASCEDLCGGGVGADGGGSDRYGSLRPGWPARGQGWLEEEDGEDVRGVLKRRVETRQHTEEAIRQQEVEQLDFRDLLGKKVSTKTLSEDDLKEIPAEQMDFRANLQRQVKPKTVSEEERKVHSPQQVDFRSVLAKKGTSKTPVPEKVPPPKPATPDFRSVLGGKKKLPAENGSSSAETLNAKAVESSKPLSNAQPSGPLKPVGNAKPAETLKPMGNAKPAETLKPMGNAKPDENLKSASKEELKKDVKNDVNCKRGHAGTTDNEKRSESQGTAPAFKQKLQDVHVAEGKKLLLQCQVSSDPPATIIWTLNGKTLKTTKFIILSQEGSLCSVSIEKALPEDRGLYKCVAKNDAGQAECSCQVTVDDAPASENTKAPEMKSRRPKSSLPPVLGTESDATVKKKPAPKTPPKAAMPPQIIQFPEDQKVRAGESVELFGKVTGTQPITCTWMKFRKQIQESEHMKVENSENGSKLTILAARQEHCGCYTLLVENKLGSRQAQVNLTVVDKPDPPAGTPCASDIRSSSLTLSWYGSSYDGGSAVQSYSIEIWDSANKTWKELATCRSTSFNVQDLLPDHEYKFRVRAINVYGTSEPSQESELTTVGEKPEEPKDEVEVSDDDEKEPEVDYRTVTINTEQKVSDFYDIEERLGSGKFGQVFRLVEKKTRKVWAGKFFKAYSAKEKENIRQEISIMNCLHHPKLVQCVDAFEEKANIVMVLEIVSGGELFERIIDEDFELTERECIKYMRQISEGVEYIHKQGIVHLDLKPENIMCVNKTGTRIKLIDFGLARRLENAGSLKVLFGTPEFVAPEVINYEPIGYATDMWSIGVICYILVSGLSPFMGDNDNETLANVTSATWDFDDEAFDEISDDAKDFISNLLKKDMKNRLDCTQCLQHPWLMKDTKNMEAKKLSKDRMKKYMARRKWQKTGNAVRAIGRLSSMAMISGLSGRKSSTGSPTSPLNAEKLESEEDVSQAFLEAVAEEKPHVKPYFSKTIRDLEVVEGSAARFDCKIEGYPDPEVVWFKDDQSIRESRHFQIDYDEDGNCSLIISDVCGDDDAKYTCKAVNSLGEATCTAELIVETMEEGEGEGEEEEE
Sequence of TIE2/TEK (Q02763 23-1124): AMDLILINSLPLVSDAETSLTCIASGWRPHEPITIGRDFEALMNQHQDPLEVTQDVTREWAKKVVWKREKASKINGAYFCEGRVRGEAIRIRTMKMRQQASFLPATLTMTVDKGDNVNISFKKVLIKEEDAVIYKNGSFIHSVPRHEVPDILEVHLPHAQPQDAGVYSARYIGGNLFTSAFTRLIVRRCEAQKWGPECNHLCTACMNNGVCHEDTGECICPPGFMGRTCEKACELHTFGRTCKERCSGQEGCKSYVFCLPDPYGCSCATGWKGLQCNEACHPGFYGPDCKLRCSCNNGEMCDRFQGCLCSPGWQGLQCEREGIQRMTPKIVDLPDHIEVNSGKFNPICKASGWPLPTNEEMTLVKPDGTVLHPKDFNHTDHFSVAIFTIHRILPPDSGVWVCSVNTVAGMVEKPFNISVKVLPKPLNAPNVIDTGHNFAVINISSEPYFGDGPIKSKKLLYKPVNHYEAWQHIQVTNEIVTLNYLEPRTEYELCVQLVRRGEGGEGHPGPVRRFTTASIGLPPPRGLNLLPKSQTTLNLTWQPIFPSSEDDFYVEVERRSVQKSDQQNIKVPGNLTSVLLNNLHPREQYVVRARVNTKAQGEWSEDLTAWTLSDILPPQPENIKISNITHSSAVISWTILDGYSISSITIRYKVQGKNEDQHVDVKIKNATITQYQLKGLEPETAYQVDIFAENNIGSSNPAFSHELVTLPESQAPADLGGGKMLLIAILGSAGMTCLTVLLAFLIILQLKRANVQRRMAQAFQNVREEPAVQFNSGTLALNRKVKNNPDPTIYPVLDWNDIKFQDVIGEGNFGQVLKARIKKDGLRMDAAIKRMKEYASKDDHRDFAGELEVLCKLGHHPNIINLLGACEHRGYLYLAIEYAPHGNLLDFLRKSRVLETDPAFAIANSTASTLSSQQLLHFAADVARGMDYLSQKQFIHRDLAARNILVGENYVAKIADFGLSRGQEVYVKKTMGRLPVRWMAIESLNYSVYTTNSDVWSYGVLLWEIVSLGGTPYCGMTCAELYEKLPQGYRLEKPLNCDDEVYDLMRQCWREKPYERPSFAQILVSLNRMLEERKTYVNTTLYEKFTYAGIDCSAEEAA
Sequence of RSK1 (Q15418 whole entry): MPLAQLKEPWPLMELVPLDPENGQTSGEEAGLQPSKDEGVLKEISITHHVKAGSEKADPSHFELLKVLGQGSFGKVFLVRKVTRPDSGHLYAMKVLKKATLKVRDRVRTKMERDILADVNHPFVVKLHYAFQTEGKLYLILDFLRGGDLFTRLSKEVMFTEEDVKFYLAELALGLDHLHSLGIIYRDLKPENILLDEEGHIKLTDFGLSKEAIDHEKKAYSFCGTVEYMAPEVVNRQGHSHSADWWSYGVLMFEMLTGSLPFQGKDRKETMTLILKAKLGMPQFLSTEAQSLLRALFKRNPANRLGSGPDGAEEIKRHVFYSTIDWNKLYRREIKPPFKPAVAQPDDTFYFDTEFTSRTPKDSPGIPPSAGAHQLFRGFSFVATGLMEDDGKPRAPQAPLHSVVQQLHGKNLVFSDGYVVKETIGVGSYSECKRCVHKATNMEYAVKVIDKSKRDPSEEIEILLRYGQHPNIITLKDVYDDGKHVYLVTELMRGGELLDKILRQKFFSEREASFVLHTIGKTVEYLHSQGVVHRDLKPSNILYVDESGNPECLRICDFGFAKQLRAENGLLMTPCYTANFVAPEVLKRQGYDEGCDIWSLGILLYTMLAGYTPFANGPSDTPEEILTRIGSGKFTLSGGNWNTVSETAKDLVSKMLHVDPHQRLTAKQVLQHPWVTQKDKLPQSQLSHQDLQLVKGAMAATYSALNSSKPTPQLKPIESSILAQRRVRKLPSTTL

Row | Compound | % enzyme activity (EPHA8) [%] | remaining activity at 1 µM (TSSK3/STK22C) [%] | remaining activity at 1 µM (LCK2/ICK) [%] | remaining activity at 1 µM (TIE2/TEK) [%] | remaining activity at 1 µM (MLCK/MYLK) [%] | % enzyme activity (RSK1) [%] | remaining activity at 1 µM (CLK3) [%]
1 | COc1cc(-c2cncc(-c3ccc(N4CCN(C)CC4)cc3)c2C)cc(F)c1C(N)=O [Compound 26a, 2-Fluoro-6-methoxy-4-(4-methyl-5-(4-(4-methylpiperazin-1-yl)phenyl)pyridin-3-yl)benzamide] | 94.54 | 96.6 | 108 | 93.8 | 106 | 97.99 | 103
2 | COc1cc(-c2cncc(-c3ccc(N4C[C@@H](C)N(C)[C@@H](C)C4)cc3)c2C)cc(F)c1C(N)=O [Compound 26c, 2-Fluoro-6-methoxy-4-(4-methyl-5-(4-((3R,5S)-3,4,5-trimethylpiperazin-1-yl)phenyl)pyridin-3-yl)benzamide] | 97.01 | 96.6 | 97.5 | 93.4 | 103 | 101.00 | 88.3
